Test results from patent publication US10357537B2, “Cyclotides as immunosuppressive agents” (priority 2011, dated 2019).
pIC50: −log10 of the molar value.

How the values were obtained:
[1] = tested on: human T-lymphoblast cells; details: read-out: IC50 cytotoxicity; Daly et al., 2004; cited from earlier work
H. contortus nematodes = details: Huang et al., 2010; read-out: IC50 nematocidal activity; cited from earlier work
[2] = tested on: experimental auto-immune encephalomyelitis in C57BL/6 mice; assay type: in vivo, mouse; details: 43 days
[3] = tested on: spleen cell cultures of EAE mice; assay: Cytokine bead array of spleen cell supernatants; assay type: cell-based, mouse
Description: For cytokine assays, 2 ml of cells (5×10^6 cells/ml) from spleens isolated 32-46 days after immunization were added to 24 well plates either alone or with MOG35-55 (10 μg/ml) or with anti-CD3ε and anti-CD 28 (20 μg/ml each). Supernatants were collected at 48 and 72 h. Quantitation of mouse cytokine content incorporating Th1, Th2 cytokines and chemokines (IFNγ, IL-2, IL-3, IL-4, IL-5, IL-6, IL-9, IL-10, IL-12p70, IL-13, GM-CSF, KC, MCP-1, MIG, and TNF) were simultaneously determined using a multiplexed bead assay (Cytometric Bead Array Flex sets [CBA]) according to the manufacturer's recommended protocol (Becton Dickinson). Acquisition of 4500 events was performed using a FACScanto II flow cytometer (Becton Dickinson, San Jose, USA) and Diva software and data analysed and fitted to a 4-parameter logistic equation using the FCAP array software (Soft Flow, Pécs, Hungary). Minimum detection levels of each cytokine were: IFNγ, 5.2 μg/ml; IL-2, 1.5 μg/ml; IL-3, 4.2 μg/ml; IL-4, 0.8 μg/ml; IL-5, 4.8 μg/ml; IL-6, 6.5 μg/ml; IL-9, 10.5 μg/ml; IL-10, 16.4 μg/ml; IL-12p70, 9.2 μg/ml; IL-13, 7.3 μg/ml; GM-CSF, 9.9 μg/ml; KC, 16.2 μg/ml; MCP-1, 29 μg/ml; MIG, 11.4 μg/ml and TNF, 17.1 μg/ml.
Accordingly, conditioned media generated from in vitro stimulated and non-stimulated spleen cell cultures were assessed in cytokine bead array assays. A total of 15 cytokines were analysed simultaneously, including, IL2, IL3, IL4, IL5, IL6, IL9, IL10, IL12p70, IL13, IFNγ, GM-CSF, KC, MCP1, MIG and TNFα.

[4] = Relative insecticidal activity (other assays, Table 2); details: in vivo
[5] = tested on: activated human primary PBMC; assay: Flow cytometric forward-side-scatter analysis of viability and proliferation; assay type: cell-based; details: data not shown
Description: After completion of the chemical analysis, different concentrations of the crude O. affinis cyclotide extract were tested for its anti-proliferative capacity on activated human primary PBMC (FIG. 2).

[6] = tested on: T. colibriformus nematodes; details: Huang et al., 2010; read-out: IC50 nematocidal activity; cited from earlier work
anti-MOG antibodies = assay: MOG-specific antibody ELISA of sera; assay type: in vivo, mouse; details: Day 43, reactivity to MOG35-55
Description: Antibody activity to rMOG and MOG35-55 in mouse sera was measured by ELISA, as previously described Ichikawa Cell Immunol 191, 1999, 97-104). Briefly, serum was collected at the end of the experiments and tested by ELISA with rMOG and MOG35-55 peptide-coated plates (Maxisorp, Nunc).
Whether the suppression of EAE in mice vaccinated with kalata B1 was associated with a decrease in the production of specific antibodies to MOG was examined. Accordingly, sera from kalata B1 and PBS treated mice were collected at the completion of the experiment (Day 43) and tested for their reactivity to MOG35-55.

nematodes = assay: Relative nematocidal activity (other assays, Table 2); assay type: in vivo; details: some cells print two values separated by a slash
[7] = tested on: splenocytes of vaccinated EAE mice; details: MOG35-55
Description: Spleens were taken from mice sacrificed 32-46 days after MOG35-55 immunization. Cells were gently dispersed through a 70 μm nylon mesh (BD) into a single cell suspension, washed and cultured at 2.5×10^6 cells/ml in complete RPMI (RPMI 1640 containing 10% heat-inactivated fetal calf serum (Sigma), 2 mM L-glutamine, 100 U/ml of penicillin, 100 μg/ml of streptomycin, 50 μm 2-mercaptoethanol and 1 mm sodium pyruvate. Two hundred microliters of cell suspensions were then added to 96 well microtitre plates either alone, with MOG35-55 (20 μg/ml) or anti-CD3ε and anti-CD 28 (20 μg/ml each) and incubated for 66 h at 37° C. with 5% CO2. Ten microliters of [^3H]thymidine (1 μCi/well; Amersham, Australia; diluted 1/10 in media) were added to each well for the last 18 h. Plates were harvested onto glass fibre filters and a drop of Microscint Scintillant (Perkin Elmer) was added to each well. Counts were read using a Top Count NXT Scintillation Counter (Perkin Elmer). Presented values are the mean of three wells.

[8] = tested on: activated human primary PBMC
Description: (§1) After cultivation, the cells were assessed in bioassays as described in the text.
The levels of apoptosis were determined using the annexin V-FITC apoptosis detection kit (eBioscience, Frankfurt, Germany) according to the manufacturer's instructions. After annexin V staining, propidium iodide solution (PI; eBioscience) was added and the cells were incubated in the dark, followed by a flow cytometric analysis to determine the amount of apoptosis and necrosis. CPT (30 μg/mL) and Triton-X 100 (0.5%) was used as positive controls for apoptosis and necrosis, respectively.
Cellular apoptotic and necrotic hallmarks were measured by using inter-nucleosomal DNA fragmentation (subG1^+ cells) assay and phosphatidylserine surface analysis through a single and combinatory annexin V and propidium iodide staining. This double staining process allowed the discrimination between viable (annexin^−/PI^−), apoptotic (annexin^+/PI^− and annexin^+/PI^+) or necrotic (annexin^−/PI^+) cells.

[9] = tested on: activated human primary PBMC; assay: Anti-proliferative CFSE cell division assay on anti-CD3/CD28-activated PBMC; details: CFSE, flow cytometry; extract 50-100 μg/mL, cyclotides 1.8-14 μM, melittin 0.05-1.6 μM
Description: Human peripheral blood mononuclear cells (PBMC) were isolated from the blood of healthy adult donors obtained from the Blood Transfusion Centre (University Medical Center, Freiburg, Germany). Venous blood was centrifuged on a LymphoPrep™ gradient (density: 1.077 g/cm^3, 20 min, 500×g, 20° C.; Progen, Heidelberg, Germany). Afterwards cells were washed twice with medium and cell viability and concentration was determined using the trypan blue exclusion test. PBMC were cultured in RPMI 1640 medium supplemented with 10% heat-inactivated fetal calf serum (PAA, Coelbe, Germany), 2 mM L-glutamine, 100 U/mL penicillin and […] (all from Invitrogen, Karlsruhe, Germany). The cells were cultured at 37° C. in a humidified incubator with a 5% CO2/95% air atmosphere. All experiments conducted on human material were approved by the Ethics committee of the University of Freiburg.
as §1
For cell proliferation and cell division tracking analysis PBMC were harvested and washed twice in cold PBS and resuspended in PBS at a concentration of 5×10^6 cells/mL. Cells were incubated for 10 min at 37° C. with carboxyfluorescein diacetate succinimidyl ester (CFSE; 5 μM: Sigma-Aldrich, Taufkirchen, Germany). The staining reaction was stopped by washing twice with complete medium. Afterwards, the cell division progress was analysed using flow cytometric analysis.
The anti-proliferative effect of cyclotide mutants/variants was tested according to Example 5. […] Afterwards the cell proliferation was assessed by analysing cell division using flow cytometric-based histogram analysis.

[10] = tested on: CNS inflammatory and demyelinating lesions; assay: Histopathology of CNS in EAE mice; assay type: in vivo, mouse; details: haemotoxylin/eosin, Luxol fast blue, Bielshowsky silver staining
Excerpt: At the completion of the experiments, mice were anesthetized, their blood collected (for subsequent antibody determination) and brain and spinal cord carefully removed, prior to immersion in a 4% paraformaldehyde, 0.1 M phosphate buffer solution. Segments of brain, cerebellum and spinal cord were embedded in paraffin. Sections were stained with haemotoxylin-eosin, Luxol fast blue and Bielshowsky for evidence of inflammation, demyelination and axonal damage, respectively (McQualter 2001 J Exp Med. October 1; 194(7), 873-82). Semiquantitative histological evaluation for inflammation and demyelination was performed and scored in a blind fashion as follows: 0, no inflammation; 1, cellular infiltrate only in the perivascular areas and meninges; 2, mild cellular infiltrate in parenchyma; 3, moderate cellular infiltrate in parenchyma; and 4, severe cellular infiltrate in parenchyma (Bettadapura J Neurochem 70, 199, 1593-1599 8; Okuda J Neuroimmunol 131, 2002, 115-125).
The influence of kalata B1 vaccination on the formation of CNS inflammatory and demyelinating lesions was examined by histological studies of fixed tissue using haemotoxylin/eosin, Luxol fast blue (LFB) and Bielshowsky silver staining.

[11] = Barry 2003; Henriques 2011; cited from earlier work
[12] = Relative hemolytic activity (other assays, Table 2); assay type: cell-based; details: some values given for the Ala mutant
[13] = non-stimulated spleen cell supernatants

In the case of `CC(C)C[C@@H]1NC(=O)CNC(=O)[C@H](CC(N)=O)NC(=O)[C@H](CCCNC(=N)N)NC(=O)[C@H]([C@@H](C)O)NC(=O)[C@@H]2CSSC[C@@H]3NC(=O)[C@H]([C@@H](C)O)NC(=O)CNC(=O)CNC(=O)[C@H](C(C)C)NC(=O)[C@@H]4CSSC[C@H](NC(=O)[C@H]([C@@H](C)O)NC(=O)[C@H](CSSC[C@H](NC(=O)[C@H](C(C)C)NC(=O)[C@@H]5CCCN5C1=O)C(=O)NCC(=O)N[C@@H](CCC(=O)O)C(=O)N[C@@H]([C@@H](C)O)C(=O)N4)NC(=O)CNC(=O)[C@@H]1CCCN1C(=O)[C@H]([C@@H](C)O)NC(=O)[C@H](CC(N)=O)NC3=O)C(=O)N[C@@H](CO)C(=O)N[C@@H](Cc1c[nH]c3ccccc13)C(=O)N1CCC[C@H]1C(=O)N[C@@H](C(C)C)C(=O)N2` [Kalata B1], the pIC50 [1] is given as 5.46, the pIC50 (H. contortus nematodes) is given as 5.57 and the mean cumulative score ([2]; p<0.01 vs PBS control group) is given as 42.2±13.0. For the same molecule, the “incidence and severity of EAE” value ([2]; three sc injections in IFA at weekly intervals before EAE induction) was “reduction in the incidence and severity of EAE”, the “cytokine content in stimulated supernatants” value ([3]; MOG35-55 or CD3/38-stimulated, cyclotide vs control groups, data not shown) was “no marked changes in cytokine content” and the “level of TNFα” value [3, 13] was “significantly reduced levels”. The “level of chemokine MIG” value [3, 13] was “significantly reduced levels”, the “Relative activity in other assays (fold difference to kB1): insecticidal” value [4] was 1.0 fold difference to kB1 and the “concentrations cytotoxic to the cells” value [5] was “higher than 14 μM”. The pIC50 [6] was 5.35, the “anti-MOG antibodies in sera” value (anti-MOG antibodies) was “anti-MOG antibodies were detected in all sera regardless of the vaccination regimen” and the “Relative activity in other assays (fold difference to kB1): nematocidal” value (nematodes) was 1.0 fold difference to kB1. For the same molecule, the “stimulation indices (SI), splenocyte proliferation to MOG” value [7] was 2.9±0.4, the induction of necrosis ([8]; kalata B1 14 μM vs untreated control, Triton-X 100, melittin high concentrations) was “slightly increased” and the induction of apoptosis ([8]; kalata B1 1.8-14 μM, CPT 30 μg/mL, melittin up to 1.6 μM) was “no significant influence on the induction of apoptosis”. For the same molecule, the “cell division / proliferation of activated PBMC (in words)” value [9] was “dose-dependent decrease of the cell division capacity”, the “histological lesions of EAE” value [10] was “some improvement in disease severity as judged by decrease in histological lesions of EAE” and the “concentrations causing hemolysis and membrane disruption” value [11] was over 50 µM. The “Relative activity in other assays (fold difference to kB1): hemolytic” value [12] was 0.7 fold difference to kB1.
